According to PubChem BioAssay (NCI):
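How tested: cells in 96-well plates exposed to compound for 48 hours at five concentrations. TGI denotes the concentration required for complete inhibition of growth.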

How the values were obtained:
Assay in all cases: NCI-60 cell line screen, 48 h
DMS 273 small cell lung = test system: DMS 273 small cell lung
LOX IMVI melanoma = test system: LOX IMVI melanoma
SF-539 CNS = test system: SF-539 CNS
XF 498 CNS = test system: XF 498 CNS
CCRF-CEM leukemia = test system: CCRF-CEM leukemia
A549 NSCLC = test system: A549 NSCLC
M14 melanoma = test system: M14 melanoma
SF-268 CNS = test system: SF-268 CNS
DLD-1 colon = test system: DLD-1 colon
SK-OV-3 ovarian = test system: SK-OV-3 ovarian
UACC-62 melanoma = test system: UACC-62 melanoma
SNB-78 CNS = test system: SNB-78 CNS
HCC-2998 colon = test system: HCC-2998 colon
HL-60(TB) leukemia = test system: HL-60(TB) leukemia
MOLT-4 leukemia = test system: MOLT-4 leukemia
KM12 colon = test system: KM12 colon
SK-MEL-5 melanoma = test system: SK-MEL-5 melanoma
ACHN renal = test system: ACHN renal
K-562 leukemia = test system: K-562 leukemia
SNB-75 CNS = test system: SNB-75 CNS
NCI-H23 lung = test system: NCI-H23 lung
NCI-H460 lung = test system: NCI-H460 lung
IGROV1 ovarian = test system: IGROV1 ovarian
A498 renal = test system: A498 renal
M19-MEL melanoma = test system: M19-MEL melanoma
786-0 renal = test system: 786-0 renal
MALME-3M melanoma = test system: MALME-3M melanoma
HOP-62 NSCLC = test system: HOP-62 NSCLC
SK-MEL-28 melanoma = test system: SK-MEL-28 melanoma
SNB-19 CNS = test system: SNB-19 CNS
OVCAR-4 ovarian = test system: OVCAR-4 ovarian
U251 CNS = test system: U251 CNS
COLO 205 colon = test system: COLO 205 colon
OVCAR-3 ovarian = test system: OVCAR-3 ovarian
RPMI-8226 leukemia = test system: RPMI-8226 leukemia
UACC-257 melanoma = test system: UACC-257 melanoma
HCT-116 colon = test system: HCT-116 colon
TK-10 renal = test system: TK-10 renal
CAKI-1 renal = test system: CAKI-1 renal
OVCAR-8 ovarian = test system: OVCAR-8 ovarian
OVCAR-5 ovarian = test system: OVCAR-5 ovarian
SR leukemia = test system: SR leukemia
EKVX NSCLC = test system: EKVX NSCLC
DMS 114 small cell lung = test system: DMS 114 small cell lung
UO-31 renal = test system: UO-31 renal
LXFL 529 NSCLC = test system: LXFL 529 NSCLC
SK-MEL-2 melanoma = test system: SK-MEL-2 melanoma
SW-620 colon = test system: SW-620 colon
KM20L2 colon = test system: KM20L2 colon
HCT-15 colon = test system: HCT-15 colon
NCI-H522 lung = test system: NCI-H522 lung
SN12C renal = test system: SN12C renal
SF-295 CNS = test system: SF-295 CNS
HOP-92 NSCLC = test system: HOP-92 NSCLC
NCI-H226 lung = test system: NCI-H226 lung
RXF 393 renal = test system: RXF 393 renal
HT29 colon = test system: HT29 colon

Measured: TGI

N#Cc1c2nc3ccccc3nc2n2ccccc12
not listed: SF-295 CNS | HOP-92 NSCLC | NCI-H226 lung | RXF 393 renal | HT29 colon
> 100 µM: all other assays above

O=C(/C=C/c1c(O)ccc2ccccc12)c1ccccc1Cl
80.6 µM: SF-539 CNS
75 µM: HOP-92 NSCLC
53.4 µM: K-562 leukemia
90 µM: NCI-H522 lung
50.7 µM: CCRF-CEM leukemia
86.5 µM: SN12C renal
52.2 µM: NCI-H23 lung
46.9 µM: SK-MEL-28 melanoma
32.3 µM: SK-MEL-5 melanoma
61.3 µM: HCT-116 colon
53.8 µM: LOX IMVI melanoma
31.9 µM: COLO 205 colon
41.5 µM: MALME-3M melanoma
46.8 µM: UACC-257 melanoma
62.2 µM: XF 498 CNS
92.3 µM: SK-MEL-2 melanoma
53.3 µM: DMS 114 small cell lung
73.9 µM: SF-295 CNS
35.1 µM: HL-60(TB) leukemia
57.1 µM: SW-620 colon
29.9 µM: UACC-62 melanoma
34.9 µM: M14 melanoma
28.3 µM: M19-MEL melanoma
not listed: SR leukemia
> 100 µM: all other assays above

COC(=O)c1nn(-c2ccccc2)c(=O)cc1N=[N+]=[N-]
not listed: DLD-1 colon | SNB-75 CNS | SK-MEL-2 melanoma | HOP-92 NSCLC
> 100 µM: all other assays above
